US11835523B2, “Assays for improving automated antimicrobial susceptibility testing accuracy” (priority 2018, dated 2023)

System: beta lactamase
Assay: Beta-lactamase inhibitor assay with nitrocefin probe (Example 1, FIG. 1)
Format: cell-based
Details: 4 μg/mL inhibitor, 0.25 mg/mL nitrocefin, 35° C., 4 hours
Experimental: By comparing the signal from an “inhibited” well to one containing the probe and microbes alone, the efficacy of the inhibitor may be tested.
Microbes were prepared by diluting colonies into saline to reach a McFarland value of 0.5, which was verified using a spectrophotometer. This was diluted 1:20 into saline and 50 μI of inoculum was added to wells of a 384-well plate. For each strain, 25 μI of solutions containing either 0.25 mg/mL nitrocefin alone (Nitro), 0.25 mg/mL nitrocefin and 4 μg/mL clauvulanate (Nitro Clay), or 0.25 mg/mL nitrocefin and 4 μg/mL tazobactam (Nitro Tazo) were added to duplicate wells. Inoculated plates were incubated at 35° C., shaking at 150 rpm for 4 hours. Absorbance was read at 490 nm and values shown in FIG. 1 are the absorbance in the indicated condition minus the absorbance from microbial inoculum alone without nitrocefin. A greater value indicates microbial ability to degrade nitrocefin, and thus, the presence of a beta lactamase. A reduction in absorbance value in the presence of an inhibitor indicates the beta lactamase present is sensitive to the inhibitor.

| Compound | inhibitor activity against strains with known beta lactamases (reduction in nitrocefin absorbance at 490 nm) |
| --- | --- |
| C[C@]1(Cn2ccnn2)[C@H](C(=O)O)N2C(=O)C[C@H]2S1(=O)=O [tazobactam] | active |
| O=C(O)[C@H]1/C(=C/CO)O[C@@H]2CC(=O)N21 [clauvulanate] | active |
